What all share (assay type): in vivo
In assay [1] the test system is blackgrass (Alopecurus myosuroides). The assay can be described thus: Test B postemergence. The method in brief:
(§1)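 Pre: seeded pots sprayed, chemical in non-phytotoxic solvent/surfactant mix. Post: plants 2–18 cm, 1–4 leaf, same formulation. Greenhouse 13–15 d; visual % control vs untreated, 0–100 scale.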

The subject of assay [2] is lambsquarters (Chenopodium album). Nature of the assay: Test B postemergence. The method in brief:
as §1

Assay [3] deals with barnyardgrass (Echinochloa crus-galli). The assay can be described thus: Test B flooded paddy test. Conditions: Rate 1000 g/ha, scale of 0 to 100 where 0 is no effect and 100 is complete control, visually evaluated after 13 to 15 days. The method in brief: (§2)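 2-leaf plants, flooded paddy; greenhouse 13–15 d post-treatment; visual rating vs controls, 0–100 scale (0 = no effect, 100 = complete control); dash = no result.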

The test system of assay [4] is duck salad (Heteranthera limosa). Nature of the assay: Test B flooded paddy test. Conditions: Rate 1000 g/ha, scale of 0 to 100 where 0 is no effect and 100 is complete control, visually evaluated after 13 to 15 days. The method in brief:
as §2

The subject of assay [5] is rice (Oryza saliva). The assay can be described thus: Test B flooded paddy test. As to conditions: Rate 1000 g/ha, scale of 0 to 100 where 0 is no effect and 100 is complete control, visually evaluated after 13 to 15 days. The method in brief:
as §2

Assay [6] has as its system smallflower flatsedge (Cyperus difformis). The assay can be described thus: Test B flooded paddy test. Conditions: Rate 1000 g/ha, scale of 0 to 100 where 0 is no effect and 100 is complete control, visually evaluated after 13 to 15 days. The method in brief: as §2
Assay [7] concerns barnyardgrass (Echinochloa crus-galli). Nature of the assay: Test C flooded paddy test. Conditions: for Barnyardgrass plant response rating: scale 0 to 100, 0 no effect, 100 complete control. The method in brief: (§3)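 Response on a 0-to-100 scale (no effect to complete control) was assessed by eye versus controls. Plants had reached 2 leaves when treated in flooded paddy conditions. The assessment took place after 12–14 days of greenhouse growth.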

Assay [8] relates to duck salad (Heteranthera limosa). Nature of the assay: Test C flooded paddy test. As to conditions: for Ducksalad plant response rating: scale 0 to 100, 0 no effect, 100 complete control. The method in brief:
as §3

Assay [9] concerns rice (Oryza saliva). Nature of the assay: Test C flooded paddy test. As to conditions: for Rice plant response rating: scale 0 to 100, 0 no effect, 100 complete control. The method in brief: as §3
For assay [10], the system named is smallflower flatsedge (Cyperus difformis). The assay can be described thus: Test C flooded paddy test. As to conditions: for Flatsedge plant response rating: Flooded Paddy, scale 0 to 100, 0 no effect, 100 complete control; for Plant response rating, Flatsedge / Plant response rating (scale 0 to 100), Flatsedge: flooded paddy test; for Plant response rating, Flatsedge: scale 0 to 100 (0 no effect, 100 complete control). The method in brief: as §3

Assay [11] has as its system morningglory (Ipomoea hederacea). The assay can be described thus: Test C postemergence. The method in brief:
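Pre- and postemergence treatments used a non-phytotoxic solvent/surfactant formulation; post-treated plants measured 2 to 18 cm. Greenhouse hold 12–14 d; % control estimated visually relative to controls.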

Assay [12] deals with Sunflower. The assay can be described thus: Test C preemergence. Conditions: Rate 62 g/ha, scale 0 to 100.
The mark [13] stands for this setting: Rate 125 g/ha, scale 0 (no effect) to 100 (complete control), 13 to 15 days.
Setting [14] is: Rate 500 g/ha, scale 0 to 100, 0 is no effect, 100 is complete control, 13 to 15 days.
Where [15] appears, read: Flooded Paddy, Rate 500 g/ha, scale 0 to 100.
[16] abbreviates: Flooded Paddy, Rate 1000 g/ha, scale 0 to 100.
[17] abbreviates: flooded paddy test, Rate 62 g/ha, scale 0 to 100 (0 no effect, 100 complete control).
The mark [18] stands for this setting: flooded paddy test, Rate 125 g/ha, scale 0 to 100 (0 no effect, 100 complete control).
The mark [19] stands for this setting: flooded paddy test, Rate 16 g/ha, visually evaluated after 12 to 14 days, 0 = no effect, 100 = complete control.
[20] abbreviates: flooded paddy test, under head Rate 16 g/ha, (own rate not given), after 12 to 14 days.
Where [21] appears, read: Rate 125 g/ha, scale 0 to 100, 0 no effect, 100 complete control.
The mark [22] stands for this setting: Rate 250 g/ha, scale 0 to 100 (0 no effect, 100 complete control).
Setting [23] is: Rate 500 g/ha, scale 0 to 100 (0 no effect, 100 complete control).

Structures are written as SMILES.

As to `O=C1C(n2ccc(C3CC3)n2)CCN1c1cccc(C(F)(F)F)c1` (stereo not shown) [Compound 8], the “Plant response rating, Blackgrass” value in assay [1] (setting [13]) and in assay [1] (setting [14]) was 0 in each case. Besides, the “Plant response rating, Lambsquarters” value in assay [2] (setting [13]) stood at 30; in assay [2] (setting [14]), 50. The “Plant response rating, Barnyardgrass” value in assay [3] worked out at 100; in [7] (setting [15]), 70; in assay [7] (setting [16]) it was 100; in assay [7] (setting [17]), 0; in assay [7] (setting [18]), 0. In addition, the “Plant response rating, Ducksalad” value in [4] is on record as 80; in [8] (setting [15]) it was 70; in assay [8] (setting [16]) it was 100; in assay [8] (setting [17]), 0; in assay [8] (setting [18]), 20. Also, the “Plant response rating, Rice” value in assay [5] worked out at 90; in assay [9] (setting [15]) it was 60; in [9] (setting [16]), 80; in assay [9] (setting [17]), 0; in assay [9] (setting [18]) it was 0. Further, the “Plant response rating, Flatsedge” value in [6] is recorded as 100; in assay [10] (Rate 62 g/ha) it was 30; in assay [10] (Rate 125 g/ha) it was 90. Moreover, the “Barnyardgrass plant response rating” value in assay [7] (Flooded Paddy, Rate 250 g/ha) was determined as 40. Besides, the “Ducksalad plant response rating” value in assay [8] (Flooded Paddy, Rate 250 g/ha) was 40. Besides, the “Rice plant response rating” value in assay [9] (Flooded Paddy, Rate 250 g/ha) was determined as 60. Further, the “Flatsedge plant response rating” value in assay [10] (Rate 250 g/ha) came to 100; in [10] (Rate 500 g/ha), 100; in [10] (rate of this column group stands in head line r653, not shown (group before Rate 500 g/ha)) it was 100.

`CCC(C)c1ccn(C2OCN(c3cccc(C(F)(F)F)c3)C2=O)n1` (stereo not shown) [Compound 24]: the “Plant response rating, Blackgrass” value in assay [1] (setting [13]) and in assay [1] (setting [14]) was 0 in each case. The “Plant response rating, Lambsquarters” value in assay [2] (setting [13]) is listed as 90; in [2] (setting [14]), 100. In addition, the “Plant response rating, Barnyardgrass” value in [3], in assay [7] (setting [17]) and in assay [7] (setting [18]) was 100 in each case. In addition, the results for the “Plant response rating, Ducksalad” value in [4], in assay [8] (setting [17]) and in assay [8] (setting [18]) were 100, 60 and 100, respectively. In addition, the “Plant response rating, Rice” value in [5] amounted to 90; in assay [9] (setting [17]), 0; in [9] (setting [18]), 20. The “Plant response rating, Flatsedge” value in assay [6], in assay [10] (Rate 62 g/ha) and in assay [10] (Rate 125 g/ha) was 100 throughout. Further, the “Barnyardgrass plant response rating” value in assay [7] (Flooded Paddy, Rate 250 g/ha) amounted to 100; in assay [7] (Flooded Paddy, Rate 500 g/ha) it was 100. Further, the “Plant response rating (scale 0 to 100), Barnyardgrass” value in assay [7] (setting [19]) turned out to be 100; in [7] (setting [20]), 80. For the same compound, the “Ducksalad plant response rating” value is 100 in assay [8] (Flooded Paddy, Rate 250 g/ha) and 100 in [8] (Flooded Paddy, Rate 500 g/ha). Also, the “Plant response rating (scale 0 to 100), Ducksalad” value in [8] (setting [19]) and in assay [8] (setting [20]) was 50 throughout. In addition, the “Rice plant response rating” value in [9] (Flooded Paddy, Rate 250 g/ha) came out at 30; in assay [9] (Flooded Paddy, Rate 500 g/ha), 60. In addition, the “Plant response rating (scale 0 to 100), Rice” value in [9] (setting [19]) and in assay [9] (setting [20]) was 20 each time. The “Flatsedge plant response rating” value in assay [10] (Rate 250 g/ha) and in assay [10] (Rate 500 g/ha) was 100 throughout. Also, the “Plant response rating (scale 0 to 100), Flatsedge” value in assay [10] (Rate 16 g/ha, visually evaluated after 12 to 14 days, 0 = no effect, 100 = complete control) is 100; in assay [10] (under head Rate 16 g/ha, (own rate not given), after 12 to 14 days), 100.

`CC(C)(C)c1ccn(C2CCN(c3cccc(Br)c3)C2=O)n1` (stereo not shown) [Compound 33]: the “Plant response rating, Blackgrass” value in assay [1] (setting [13]) and in [1] (setting [14]) was 0 in each case. Further, the “Plant response rating, Lambsquarters” value worked out at 70 in [2] (setting [13]) and 80 in [2] (setting [14]). The “Plant response rating, Barnyardgrass” value in [3] amounted to 0. In addition, the “Plant response rating, Ducksalad” value in [4] stood at 0. In addition, in [5], the “Plant response rating, Rice” value is given as 0. Further, the “Plant response rating, Flatsedge” value in [6] amounted to 0.

`COc1cc(N2CCC(n3ccc(C(C)C)n3)C2=O)ccc1Cl` (stereo not shown) [Compound 120]: the “Plant response rating, Blackgrass” value in assay [1] (setting [21]) and in assay [1] (setting [14]) was 0 throughout. In assay [2] (setting [21]), the “Plant response rating, Lambsquarters” value was 60. Also, the “Plant response rating, Morningglory” value in assay [11] (Rate 62 g/ha, scale 0 to 100) is reported as 0; in assay [11] (setting [22]) it was 90; in assay [11] (setting [23]), 100. The “Barnyardgrass plant response rating” value in [7] (Flooded Paddy, Rate 250 g/ha) worked out at 80. In addition, the “Plant response rating, Barnyardgrass” value is 20 in [7] (setting [17]) and 50 in assay [7] (setting [18]). Also, the “Ducksalad plant response rating” value amounted to 100 in assay [8] (Flooded Paddy, Rate 250 g/ha) and 100 in assay [8] (Flooded Paddy, Rate 500 g/ha). Further, the figures for the “Plant response rating, Ducksalad” value in assay [8] (setting [17]) and in assay [8] (setting [18]) were 70 and 100, respectively. For the same compound, the “Rice plant response rating” value in [9] (Flooded Paddy, Rate 250 g/ha) is 30; in assay [9] (Flooded Paddy, Rate 500 g/ha), 80. Further, the “Plant response rating, Rice” value in assay [9] (setting [17]) is 0; in assay [9] (setting [18]), 20. Moreover, the “Flatsedge plant response rating” value in assay [10] (Rate 250 g/ha) and in assay [10] (Rate 500 g/ha) was 100 throughout. Besides, the entries for the “Plant response rating, Flatsedge” value in assay [10] (Rate 62 g/ha) and in assay [10] (Rate 125 g/ha) were 90 and 100, respectively. Further, in [12], the “Plant response rating, Sunflower” value is on record as 60.

`CCCC(C)c1ccn(C2CCN(c3ccc(Cl)c(OC)c3)C2=O)n1` (stereo not shown) [Compound 121]: the “Plant response rating, Blackgrass” value in [1] (setting [21]) and in assay [1] (setting [14]) was 0 each time. Moreover, the “Plant response rating, Lambsquarters” value in assay [2] (setting [21]) came out at 80. The “Plant response rating, Morningglory” value turned out to be 50 in [11] (Rate 62 g/ha, scale 0 to 100); 70 in [11] (setting [22]); 100 in assay [11] (setting [23]). For the same compound, the “Barnyardgrass plant response rating” value in assay [7] (Flooded Paddy, Rate 250 g/ha) stood at 20; in [7] (Flooded Paddy, Rate 500 g/ha), 80. In addition, the “Plant response rating, Barnyardgrass” value is given as 0 in assay [7] (setting [17]) and 20 in [7] (setting [18]). In addition, the “Ducksalad plant response rating” value in assay [8] (Flooded Paddy, Rate 250 g/ha) worked out at 60; in [8] (Flooded Paddy, Rate 500 g/ha), 90. Moreover, the “Plant response rating, Ducksalad” value in assay [8] (setting [17]) and in [8] (setting [18]) was 0 throughout. Besides, the “Rice plant response rating” value was determined as 0 in assay [9] (Flooded Paddy, Rate 250 g/ha) and 0 in [9] (Flooded Paddy, Rate 500 g/ha). Besides, the “Plant response rating, Rice” value in [9] (setting [18]) was 0. For the same compound, the “Flatsedge plant response rating” value in [10] (Rate 250 g/ha) and in assay [10] (Rate 500 g/ha) was 100 throughout. The “Plant response rating, Flatsedge” value in assay [10] (Rate 62 g/ha) and in assay [10] (Rate 125 g/ha) was 100 throughout. For the same compound, in assay [12], the “Plant response rating, Sunflower” value amounted to 10.

For the origin of these results see US7138361B2, “Herbicidal heterocycles” (E. I. du Pont de Nemours and Company, priority 2000, dated 2006).
